Reference: PubChem BioAssay AID2060905 (Molecular Pharmacology Branch, DTP, NCI, 2025)

Tested on: 282377-053-R-J1-PDC complex spheroid viability
Test: Anticancer human tumor 282377-053-R-J1-PDC patient-derived colon adenocarcinoma cell line growth inhibition [RAS]
Details: for viability, T/C: stronger effect = lower value
Outline: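 Tumour cells grown as complex spheroids with HUVEC endothelial cells and mesenchymal stem cells, treated with RAS pathway inhibitor combinations. Each agent spans half-log steps from near clinical Cmax, or 10 microM where Cmax is unknown.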

[1] = curve of first compound, second compound 0.000949 µM
[2] = curve of first compound, second compound 0.003 µM
[3] = curve of first compound, second compound 0.00949 µM
[4] = curve of first compound, second compound 0.03 µM
[5] = curve of first compound, second compound 0.0949 µM
[6] = curve of first compound, second compound 0.3 µM
[7] = second compound 0.000949 µM, first compound 0.0316 µM
[8] = second compound 0.000949 µM, first compound 0.1 µM
[9] = second compound 0.000949 µM, first compound 0.316 µM
[10] = second compound 0.000949 µM, first compound 1 µM
[11] = second compound 0.000949 µM, first compound 3.16 µM
[12] = second compound 0.000949 µM, first compound 10 µM
[13] = second compound 0.003 µM, first compound 0.0316 µM
[14] = second compound 0.003 µM, first compound 0.1 µM
[15] = second compound 0.003 µM, first compound 0.316 µM
[16] = second compound 0.003 µM, first compound 1 µM
[17] = second compound 0.003 µM, first compound 3.16 µM
[18] = second compound 0.003 µM, first compound 10 µM
[19] = second compound 0.00949 µM, first compound 0.0316 µM
[20] = second compound 0.00949 µM, first compound 0.1 µM
[21] = second compound 0.00949 µM, first compound 0.316 µM
[22] = second compound 0.00949 µM, first compound 1 µM
[23] = second compound 0.00949 µM, first compound 3.16 µM
[24] = second compound 0.00949 µM, first compound 10 µM
[25] = second compound 0.03 µM, first compound 0.0316 µM
[26] = second compound 0.03 µM, first compound 0.1 µM
[27] = second compound 0.03 µM, first compound 0.316 µM
[28] = second compound 0.03 µM, first compound 1 µM
[29] = second compound 0.03 µM, first compound 3.16 µM
[30] = second compound 0.03 µM, first compound 10 µM
[31] = second compound 0.0949 µM, first compound 0.0316 µM
[32] = second compound 0.0949 µM, first compound 0.1 µM
[33] = second compound 0.0949 µM, first compound 0.316 µM
[34] = second compound 0.0949 µM, first compound 1 µM
[35] = second compound 0.0949 µM, first compound 3.16 µM
[36] = second compound 0.0949 µM, first compound 10 µM
[37] = second compound 0.3 µM, first compound 0.0316 µM
[38] = second compound 0.3 µM, first compound 0.1 µM
[39] = second compound 0.3 µM, first compound 0.316 µM
[40] = second compound 0.3 µM, first compound 1 µM
[41] = second compound 0.3 µM, first compound 3.16 µM
[42] = second compound 0.3 µM, first compound 10 µM
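Further: spheroids exposed to agents for seven days before readout.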
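Wherever viability, T/C is given: luminescence viability as percent of DMSO vehicle control wells.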

**Q.** How did the IC50 [1] turn out when `CC(C)NCC(C(=O)N1CCN(c2ncnc3c2C(C)CC3O)CC1)c1ccc(Cl)cc1` (stereo not drawn) + CCn1c(-c2cccnc2C(C)OC)c2c3cc(ccc31)N1CCOC(CC(NC(=O)C(C(C)C)N(C)C(=O)C3(F)CCN(C(=O)C#CC(C)(C)N(C)C)CC3)C(=O)N3CCCC(N3)C(=O)OCC(C)(C)C2)C1 was run?
**A.** > 10 µM

**Q.** What about the IC50 [2] of the same molecule?
**A.** > 10 µM

**Q.** What about the IC50 [3] of the same molecule?
**A.** > 10 µM

**Q.** And the IC50 [4]?
**A.** > 10 µM

**Q.** And the IC50 [5]?
**A.** > 10 µM

**Q.** And the IC50 [6]?
**A.** > 10 µM

**Q.** And the viability, T/C [7]?
**A.** 96.4%

**Q.** What about the viability, T/C [8] of the same molecule?
**A.** 99.7%

**Q.** And the viability, T/C [9]?
**A.** 109%

**Q.** And the viability, T/C [10]?
**A.** 89.7%

**Q.** What about the viability, T/C [11] of the same molecule?
**A.** 78.3%

**Q.** What about the viability, T/C [12] of the same molecule?
**A.** 70.6%

**Q.** And the viability, T/C [13]?
**A.** 104%

**Q.** And the viability, T/C [14]?
**A.** 96.5%

**Q.** What about the viability, T/C [15] of the same molecule?
**A.** 91.9%

**Q.** And the viability, T/C [16]?
**A.** 82.2%

**Q.** What about the viability, T/C [17] of the same molecule?
**A.** 79.5%

**Q.** What about the viability, T/C [18] of the same molecule?
**A.** 78.2%

**Q.** And the viability, T/C [19]?
**A.** 114%

**Q.** And the viability, T/C [20]?
**A.** 93%

**Q.** And the viability, T/C [21]?
**A.** 90%

**Q.** And the viability, T/C [22]?
**A.** 88.8%

**Q.** What about the viability, T/C [23] of the same molecule?
**A.** 82.5%

**Q.** What about the viability, T/C [24] of the same molecule?
**A.** 74.5%

**Q.** And the viability, T/C [25]?
**A.** 104%

**Q.** What about the viability, T/C [26] of the same molecule?
**A.** 111%

**Q.** And the viability, T/C [27]?
**A.** 81.3%

**Q.** And the viability, T/C [28]?
**A.** 103%

**Q.** And the viability, T/C [29]?
**A.** 69.8%

**Q.** What about the viability, T/C [30] of the same molecule?
**A.** 88.1%

**Q.** And the viability, T/C [31]?
**A.** 88.4%

**Q.** And the viability, T/C [32]?
**A.** 94.4%

**Q.** And the viability, T/C [33]?
**A.** 127%

**Q.** What about the viability, T/C [34] of the same molecule?
**A.** 90%

**Q.** What about the viability, T/C [35] of the same molecule?
**A.** 72.5%

**Q.** And the viability, T/C [36]?
**A.** 67.8%

**Q.** What about the viability, T/C [37] of the same molecule?
**A.** 105%

**Q.** And the viability, T/C [38]?
**A.** 112%

**Q.** And the viability, T/C [39]?
**A.** 94.8%

**Q.** And the viability, T/C [40]?
**A.** 92.7%

**Q.** And the viability, T/C [41]?
**A.** 77.3%

**Q.** What about the viability, T/C [42] of the same molecule?
**A.** 80.7%

**Q.** How did the viability, T/C (compound 0.003 µM) turn out when `CCn1c(-c2cc(N3CCN(C)CC3)cnc2C(C)OC)c2c3cc(ccc31)-c1csc(n1)CC(NC(=O)C1CC1C)C(=O)N1CCCC(N1)C(=O)OCC(C)(C)C2` (stereo not drawn) was run?
**A.** 95.7% [middle of 8 runs]

**Q.** What about the viability, T/C (compound 0.00949 µM) of the same molecule?
**A.** 98.4% [middle of 8 runs]

**Q.** And the viability, T/C (compound 0.0949 µM)?
**A.** 105% [middle of 8 runs]

**Q.** And the IC50 (compound alone, run of 05/20/2024)?
**A.** > 0.3 µM

**Q.** For `Cc1nc(N2CCC3(CC2)COC(C)C3N)c(CO)nc1Sc1ccnc(N)c1Cl` (stereo not drawn) + CCn1c(-c2cccnc2C(C)OC)c2c3cc(ccc31)N1CCOC(CC(NC(=O)C(C(C)C)N(C)C(=O)C3(F)CCN(C(=O)C#CC(C)(C)N(C)C)CC3)C(=O)N3CCCC(N3)C(=O)OCC(C)(C)C2)C1, which IC50 [1] is on record?
**A.** > 10 µM

**Q.** What about the IC50 [2] of the same molecule?
**A.** > 10 µM

**Q.** What about the IC50 [3] of the same molecule?
**A.** > 10 µM

**Q.** And the IC50 [4]?
**A.** > 10 µM

**Q.** And the IC50 [5]?
**A.** > 10 µM

**Q.** What about the IC50 [6] of the same molecule?
**A.** > 10 µM

**Q.** And the viability, T/C [7]?
**A.** 81%

**Q.** What about the viability, T/C [8] of the same molecule?
**A.** 93.8%

**Q.** And the viability, T/C [9]?
**A.** 89.8%

**Q.** What about the viability, T/C [10] of the same molecule?
**A.** 94.2%

**Q.** What about the viability, T/C [11] of the same molecule?
**A.** 81.8%

**Q.** What about the viability, T/C [12] of the same molecule?
**A.** 80.6%

**Q.** What about the viability, T/C [13] of the same molecule?
**A.** 85.8%

**Q.** What about the viability, T/C [14] of the same molecule?
**A.** 115%

**Q.** And the viability, T/C [15]?
**A.** 101%

**Q.** And the viability, T/C [16]?
**A.** 85.8%

**Q.** What about the viability, T/C [17] of the same molecule?
**A.** 82.1%

**Q.** And the viability, T/C [18]?
**A.** 75.1%

**Q.** What about the viability, T/C [19] of the same molecule?
**A.** 111%

**Q.** And the viability, T/C [20]?
**A.** 85.1%

**Q.** What about the viability, T/C [21] of the same molecule?
**A.** 89.2%

**Q.** What about the viability, T/C [22] of the same molecule?
**A.** 99.7%

**Q.** What about the viability, T/C [23] of the same molecule?
**A.** 99.5%

**Q.** And the viability, T/C [24]?
**A.** 110%

**Q.** And the viability, T/C [25]?
**A.** 101%

**Q.** And the viability, T/C [26]?
**A.** 83.8%

**Q.** What about the viability, T/C [27] of the same molecule?
**A.** 102%

**Q.** What about the viability, T/C [28] of the same molecule?
**A.** 87%

**Q.** What about the viability, T/C [29] of the same molecule?
**A.** 84.4%

**Q.** What about the viability, T/C [30] of the same molecule?
**A.** 83.4%

**Q.** And the viability, T/C [31]?
**A.** 88.9%

**Q.** What about the viability, T/C [32] of the same molecule?
**A.** 96.2%

**Q.** What about the viability, T/C [33] of the same molecule?
**A.** 108%

**Q.** And the viability, T/C [34]?
**A.** 103%

**Q.** What about the viability, T/C [35] of the same molecule?
**A.** 95.5%

**Q.** What about the viability, T/C [36] of the same molecule?
**A.** 105%

**Q.** And the viability, T/C [37]?
**A.** 87.6%

**Q.** And the viability, T/C [38]?
**A.** 103%

**Q.** And the viability, T/C [39]?
**A.** 93%

**Q.** And the viability, T/C [40]?
**A.** 100%

**Q.** And the viability, T/C [41]?
**A.** 90%

**Q.** And the viability, T/C [42]?
**A.** 119%
